Experimental data as given in patent US20190375708A1 (VenatoRx Pharmaceuticals, Inc., priority 2018, published 2019).

What was measured:
[1] = test system: HBV replication in HepAD38 cells; test: Anti-HBV replication assay in HepAD38 cells (QPCR of extracellular HBV DNA); assay type: cell-based, HBV (genotype D, serotype ayw); details: Hepatitis B virus, 168 h, 7 days incubation, extracellular HBV DNA by QPCR, read-out: Anti-HBV EC50
In short: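 EC50 values reflect 50% reduction of extracellular HBV DNA, measured by QPCR after 7-day treatment of tetracycline-deprived HepAD38 cells with compound […].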

[2] = In vitro cytotoxicity assay (MTT cell viability) in HepG2 cells; assay type: cell-based, human; details: human
In short: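 Read-out: MTT formazan absorbance at 492 nm, expressed as % of vehicle signal; CC50 by 4-parameter non-linear regression. Parental HepG2, 20,000 cells/well, treated 7 days with compound from 30 μM down to 1.0 nM.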

O=C(N[C@H]1C[C@H](O)C1)C(=O)c1c(Cl)c(C(=O)Nc2ccc(F)c(Cl)c2)c2n1CCC2 [Example 555, 6-chloro-N-(3-chloro-4-fluorophenyl)-5-(2-(((1r,3r)-3-hydroxycyclobutyl)amino)-2-oxoacetyl)-2,3-dihydro-1H-pyrrolizine-7-carboxamide]
EC50 [1]: 50 to 499 nM | CC50 at 7 days [2]: 5 to 30 µM

Cc1cc(NC(=O)c2c(Cl)c(C(=O)C(=O)NCC(C)(C)CO)n3c2CCC3)ccc1F [Example 549, 6-chloro-N-(4-fluoro-3-methylphenyl)-5-(2-((3-hydroxy-2,2-dimethylpropyl)amino)-2-oxoacetyl)-2,3-dihydro-1H-pyrrolizine-7-carboxamide]
EC50 [1]: 500 to 1000 nM | CC50 at 7 days [2]: > 30 µM

Cc1cc(NC(=O)c2c(C)c(C(=O)C(=O)NC3COCC(O)C3)n(C)c2C)ccc1F (stereo not shown) [Example 608, N-(4-fluoro-3-methylphenyl)-5-(2-((5-hydroxytetrahydro-2H-pyran-3-yl)amino)-2-oxoacetyl)-1,2,4-trimethyl-1H-pyrrole-3-carboxamide]
EC50 [1]: < 50 nM | CC50 at 7 days [2]: > 30 µM

Cc1c(C(=O)Nc2ccn(C)n2)c2n(c1C(=O)C(=O)NC(C)(C)CO)CCCC2 [Example 756, 3-(2-((1-hydroxy-2-methylpropan-2-yl)amino)-2-oxoacetyl)-2-methyl-N-(1-methyl-1H-pyrazol-3-yl)-5,6,7,8-tetrahydroindolizine-1-carboxamide]
EC50 [1]: 50 to 499 nM | CC50 at 7 days [2]: > 30 µM

Cc1cc(NC(=O)c2c(C)c(C(=O)C(=O)N[C@H]3CCC[C@@H]3O)n(C)c2C)cnc1F [Example 131, N-(6-fluoro-5-methylpyridin-3-yl)-5-(2-(((1S,2S)-2-hydroxycyclopentyl)amino)-2-oxoacetyl)-1,2,4-trimethyl-1H-pyrrole-3-carboxamide]
EC50 [1]: 50 to 499 nM | CC50 at 7 days [2]: > 30 µM

Cc1cc(NC(=O)c2c(C)c(C(=O)C(=O)NC(C)(C)CCO)n(C)c2C)ccc1F [Example 11, N-(4-fluoro-3-methylphenyl)-5-(2-((4-hydroxy-2-methylbutan-2-yl)amino)-2-oxoacetyl)-1,2,4-trimethyl-1H-pyrrole-3-carboxamide]
EC50 [1]: < 50 nM | CC50 at 7 days [2]: > 30 µM

Cc1cc(NC(=O)c2c(C)c(C(=O)C(=O)Nc3ccccn3)n(C)c2C)ccc1F [Example 276, N-(4-fluoro-3-methylphenyl)-1,2,4-trimethyl-5-(2-oxo-2-(pyridin-2-ylamino)acetyl)-1H-pyrrole-3-carboxamide]
EC50 [1]: < 50 nM | CC50 at 7 days [2]: > 30 µM

Cc1cc(NC(=O)c2c(C)c(C(=O)C(=O)N[C@H]3C4CC5CC3C[C@](O)(C5)C4)n(CCF)c2C)ccc1F [Example 118, N-(4-fluoro-3-methylphenyl)-1-(2-fluoroethyl)-5-(2-(((1R,2s,3S,5s,7s)-5-hydroxyadamantan-2-yl)amino)-2-oxoacetyl)-2,4-dimethyl-1H-pyrrole-3-carboxamide]
EC50 [1]: < 50 nM | CC50 at 7 days [2]: > 30 µM

Cc1c(C(=O)Nc2ccc(F)c(C#N)c2)c2n(c1C(=O)C(=O)NC(C)(C)C)CCCC2 [Example 435, 3-(2-(tert-butylamino)-2-oxoacetyl)-N-(3-cyano-4-fluorophenyl)-2-methyl-5,6,7,8-tetrahydroindolizine-1-carboxamide]
EC50 [1]: > 1000 nM | CC50 at 7 days [2]: 5 to 30 µM

Cc1cc(NC(=O)c2c(C)c(C(=O)C(=O)NC34CC5CC(C3)C(O)C(C5)C4)n(C)c2C)ccc1F [Example 59, N-(4-fluoro-3-methylphenyl)-5-(2-(((1s,3R,4s,5S,7s)-4-hydroxyadamantan-1-yl)amino)-2-oxoacetyl)-1,2,4-trimethyl-1H-pyrrole-3-carboxamide]
EC50 [1]: < 50 nM | CC50 at 7 days [2]: > 30 µM

Cc1noc([C@H](C)NC(=O)C(=O)c2c(C)c(C(=O)Nc3ccc(F)c(Cl)c3)c3n2CCCC3)n1 [Example 446, (S)-N-(3-chloro-4-fluorophenyl)-2-methyl-3-(2-((1-(3-methyl-1,2,4-oxadiazol-5-yl)ethyl)amino)-2-oxoacetyl)-5,6,7,8-tetrahydroindolizine-1-carboxamide]
EC50 [1]: 50 to 499 nM | CC50 at 7 days [2]: 5 to 30 µM

Cc1cc(NC(=O)c2c(C)c(C(=O)C(=O)N[C@H](C(N)=O)[C@@H](C)O)n(C)c2C)ccc1F [Example 42, 5-(2-(((2S,3R)-1-amino-3-hydroxy-1-oxobutan-2-yl)amino)-2-oxoacetyl)-N-(4-fluoro-3-methylphenyl)-1,2,4-trimethyl-1H-pyrrole-3-carboxamide]
EC50 [1]: < 50 nM | CC50 at 7 days [2]: > 30 µM

Cc1cc(NC(=O)c2cc(C(=O)C(=O)NC3(CO)CC3)n3c2CCCC3)ccc1F [Example 420, N-(4-fluoro-3-methylphenyl)-3-(2-((1-(hydroxymethyl)cyclopropyl)amino)-2-oxoacetyl)-5,6,7,8-tetrahydroindolizine-1-carboxamide]
EC50 [1]: 50 to 499 nM | CC50 at 7 days [2]: > 30 µM

Cc1cc(NC(=O)c2c(C)c(C(=O)C(=O)N[C@H](C)[C@@H](C)O)n(C)c2C)ccc1F [Example 199, N-(4-fluoro-3-methylphenyl)-5-(2-(((2R,3R)-3-hydroxybutan-2-yl)amino)-2-oxoacetyl)-1,2,4-trimethyl-1H-pyrrole-3-carboxamide]
EC50 [1]: < 50 nM | CC50 at 7 days [2]: > 30 µM

Cc1cc(NC(=O)c2c(C)c(C(=O)C(=O)NOC(C)(C)CO)n(C)c2C)ccc1F [Example 156, N-(4-fluoro-3-methylphenyl)-5-(2-(((1-hydroxy-2-methylpropan-2-yl)oxy)amino)-2-oxoacetyl)-1,2,4-trimethyl-1H-pyrrole-3-carboxamide]
EC50 [1]: < 50 nM | CC50 at 7 days [2]: > 30 µM

Cc1cc(Cl)cc(NC(=O)c2c(C)c(C(=O)C(=O)N[C@H]3CC[C@@H](O)CC3)n(C)c2C)c1 [Example 685, N-(3-chloro-5-methylphenyl)-5-(2-(((1s,4s)-4-hydroxycyclohexyl)amino)-2-oxoacetyl)-1,2,4-trimethyl-1H-pyrrole-3-carboxamide]
EC50 [1]: < 50 nM | CC50 at 7 days [2]: > 30 µM

Cc1cc(NC(=O)c2c(Cl)c(C(=O)C(=O)NC3(CO)CC3)n3c2CCC3)ccc1F [Example 542, 6-chloro-N-(4-fluoro-3-methylphenyl)-5-(2-((1-(hydroxymethyl)cyclopropyl)amino)-2-oxoacetyl)-2,3-dihydro-1H-pyrrolizine-7-carboxamide]
EC50 [1]: < 50 nM | CC50 at 7 days [2]: > 30 µM

Cc1cc(NC(=O)c2c(C)c(C(=O)C(=O)N[C@H]3CC[C@H](O)CC3)n(C)c2C)ccc1F [Example 246, N-(4-fluoro-3-methylphenyl)-5-(2-(((1r,4r)-4-hydroxycyclohexyl)amino)-2-oxoacetyl)-1,2,4-triemthyl-1H-pyrrole-3-carboxamide]
EC50 [1]: < 50 nM | CC50 at 7 days [2]: 5 to 30 µM

Cc1c(C(=O)Nc2cccc(C(F)F)c2)c(C)n(C)c1C(=O)C(=O)N[C@H]1CC[C@@H](O)CC1 [Example 690, N-(3-(difluoromethyl)phenyl)-5-(2-(((1s,4s)-4-hydroxycylcohexyl)amino)-2-oxoacetyl)-1,2,4-trimethyl-1H-pyrrole-3-carboxamide]
EC50 [1]: < 50 nM | CC50 at 7 days [2]: > 30 µM

Cc1cc(NC(=O)c2cc(C(=O)C(=O)N[C@@H](C(=O)O)C(C)(C)C)n3c2CCCC3)ccc1F [Example 422, (R)-2-(2-(1-((4-fluoro-3-methylphenyl)carbamoyl)-5,6,7,8-tetrahydroindolizin-3-yl)-2-oxoacetamido)-3,3-dimethylbutanoic acid]
EC50 [1]: > 1000 nM | CC50 at 7 days [2]: > 30 µM

Cc1c(C(=O)Nc2ccc(F)c(F)c2)c(C)n(C)c1C(=O)C(=O)NC1(c2nnn[nH]2)CCCC1 [Example 698, 5-(2-((1-(1H-tetrazol-5-yl)cyclopentyl)amino)-2-oxoacetyl)-N-(3,4-difluorophenyl)-1,2,4-trimethyl-1H-pyrrole-3-carboxmide]
EC50 [1]: 50 to 499 nM | CC50 at 7 days [2]: > 30 µM

Cc1cc(NC(=O)c2c(C)c(C(=O)C(=O)Nc3ncc(C(F)(F)F)s3)n(C)c2C)ccc1F [Example 317, N-(4-fluoro-3-methylphenyl)-1,2,4-trimethyl-5-(2-oxo-2-((5-(trifluoromethyl)thiazol-2-yl)amino)acetyl)-1H-pyrrole-3-carboxamide]
EC50 [1]: > 1000 nM | CC50 at 7 days [2]: 5 to 30 µM

Cc1csc(NC(=O)C(=O)c2c(C)c(C(=O)Nc3ccc(F)c(F)c3)c(C)n2C)n1 [Example 315, N-(3,4-difluorophenyl)-1,2,4-trimethyl-5-(2-((4-methylthiazol-2-yl)amino)-2-oxoacetyl)-1H-pyrrole-3-carboxamide]
EC50 [1]: < 50 nM | CC50 at 7 days [2]: > 30 µM

CC[C@H](C)NC(=O)C1(NC(=O)C(=O)c2c(C)c(C(=O)Nc3ccc(F)c(C)c3)c(C)n2C)CCOCC1 [Example 682, (S)-5-(2-((4-(sec-butylcarbamoyl)tetrahydro-2H-pyran-4-yl)amino)-2-oxoacetyl)-N-(4-fluoro-3-methylphenyl)-1,2,4-trimethyl-1H-pyrrole-3-carboxamide]
EC50 [1]: < 50 nM | CC50 at 7 days [2]: > 30 µM

Cc1cc(NC(=O)c2c(C)c(C(=O)C(=O)N[C@H]3C[C@H](O)C3)n3c2CCCC3)ccc1F [Example 438, N-(4-fluoro-3-methylphenyl)-3-(2-(((1r,3r)-3-hydroxycyclobutyl)amino)-2-oxoacetyl)-2-methyl-5,6,7,8-tetrahydroindolizine-1-carboxamide]
EC50 [1]: 50 to 499 nM | CC50 at 7 days [2]: > 30 µM

Cc1c(C(=O)NC2CCC(F)(F)C2)c2n(c1C(=O)C(=O)NC(C)(C)CO)CCCC2 (stereo not shown) [Example 752, N-(3,3-difluorocyclopentyl)-3-(2-((1-hydroxy-2-methylpropan-2-yl)amino)-2-oxoacetyl)-2-methyl-5,6,7,8-tetrahydroindolizine-1-carboxamide]
EC50 [1]: 50 to 499 nM | CC50 at 7 days [2]: > 30 µM
